Test results reported in patent US7470702B2, “Benzimidazoles” (Merck Patent GmbH, priority 2003, dated 2008).

Each compound was assayed against TIE-2 (Homo sapiens, UniProt Q02763) (assay: Inhibition of TIE-2 (flashplate kinase assay, poly(Glu, Tyr) phosphorylation, 33P-ATP)).
Assay type: biochemical
Procedure: The TIE-2 tests can be carried out, for example, analogously to the methods indicated in WO 02/44156.
The assay determines the inhibiting activity of the substances to be tested in the phosphorylation of the substrate poly(Glu, Tyr) by Tie-2 kinase in the presence of radioactive ^33P-ATP. The phosphorylated substrate binds to the surface of a “flashplate” microtitre plate during the incubation time. After removal of the reaction mixture, the microtitre plate is washed a number of times and the radioactivity on its surface is subsequently measured. An inhibiting effect of the substances to be measured results in lower radioactivity compared with an undisturbed enzymatic reaction.

Chain of TIE-2 (Q02763 23-1124, species assumed): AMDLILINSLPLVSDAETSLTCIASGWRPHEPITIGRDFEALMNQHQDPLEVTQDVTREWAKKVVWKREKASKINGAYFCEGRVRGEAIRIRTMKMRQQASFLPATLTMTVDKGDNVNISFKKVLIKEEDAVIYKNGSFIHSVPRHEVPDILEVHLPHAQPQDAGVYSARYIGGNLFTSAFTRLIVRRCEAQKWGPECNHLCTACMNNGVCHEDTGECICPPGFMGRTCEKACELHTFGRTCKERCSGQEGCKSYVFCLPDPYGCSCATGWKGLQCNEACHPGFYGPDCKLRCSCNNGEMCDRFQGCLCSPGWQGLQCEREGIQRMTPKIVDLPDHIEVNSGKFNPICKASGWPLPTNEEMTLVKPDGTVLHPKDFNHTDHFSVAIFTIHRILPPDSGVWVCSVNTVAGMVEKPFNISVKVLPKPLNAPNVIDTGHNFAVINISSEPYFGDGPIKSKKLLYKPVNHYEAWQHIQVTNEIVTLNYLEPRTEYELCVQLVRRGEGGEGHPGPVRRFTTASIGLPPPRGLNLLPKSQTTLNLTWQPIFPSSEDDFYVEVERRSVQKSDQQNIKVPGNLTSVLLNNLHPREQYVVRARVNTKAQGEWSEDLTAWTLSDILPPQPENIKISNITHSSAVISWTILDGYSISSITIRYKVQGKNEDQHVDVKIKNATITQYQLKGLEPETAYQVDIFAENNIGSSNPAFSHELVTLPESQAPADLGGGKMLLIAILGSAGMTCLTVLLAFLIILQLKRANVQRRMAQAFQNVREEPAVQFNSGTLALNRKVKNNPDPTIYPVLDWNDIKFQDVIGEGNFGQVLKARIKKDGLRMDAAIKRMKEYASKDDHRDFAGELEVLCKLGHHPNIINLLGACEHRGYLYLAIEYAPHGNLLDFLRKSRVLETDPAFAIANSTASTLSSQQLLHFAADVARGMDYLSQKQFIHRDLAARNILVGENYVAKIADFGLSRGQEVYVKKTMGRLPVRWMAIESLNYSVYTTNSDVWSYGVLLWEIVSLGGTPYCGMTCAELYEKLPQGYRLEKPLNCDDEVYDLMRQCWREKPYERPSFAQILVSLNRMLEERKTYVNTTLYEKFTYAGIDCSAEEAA

IC50 [nM]	SMILES
900	FC(F)(F)c1cc(Cl)c2nc(Nc3ccc(Oc4ccncc4)cc3)[nH]c2c1 [(14), (4-Chloro-6-trifluoromethyl-1H-benzimidazol-2-yl)[4-(pyridin-4-yloxy)phenyl]amine]
500	FC(F)(F)c1cc(Br)c2nc(Nc3ccc(Oc4ccncc4)cc3)[nH]c2c1 [(5), (4-Bromo-6-trifluoromethyl-1H-benzimidazol-2-yl)[4-(pyridin-4-yloxy)phenyl]amine]
4000	Cc1ccc2nc(Nc3ccc(Oc4ccncc4)cc3)[nH]c2c1 [(3), (6-Methyl-1H-benzimidazol-2-yl)[4-(pyridin-4-yloxy)phenyl]amine]
